In patent publication US7923465B2, “Cannabinoid receptor ligands, pharmaceutical compositions containing them, and process for their preparation” (priority 2005, dated 2011):
Read-outs that look alike come from different tables or passages of the source.

How the values were obtained:
[1] = target: hCB2 (Homo sapiens, UniProt P34972); test: In vitro binding assay using hCB2-CHO membranes, [3H]-CP-55,940 displacement (Protocol IV); set-up: expressed in transfected cells; host or cells: CHO (hCB2-CHO, generated in-house); conditions: 1 h; hCB2-CHO membranes, [3H]-CP-55,940 displacement; read-out: % Displacement Protocol IV
Chain of hCB2 (P34972 whole entry): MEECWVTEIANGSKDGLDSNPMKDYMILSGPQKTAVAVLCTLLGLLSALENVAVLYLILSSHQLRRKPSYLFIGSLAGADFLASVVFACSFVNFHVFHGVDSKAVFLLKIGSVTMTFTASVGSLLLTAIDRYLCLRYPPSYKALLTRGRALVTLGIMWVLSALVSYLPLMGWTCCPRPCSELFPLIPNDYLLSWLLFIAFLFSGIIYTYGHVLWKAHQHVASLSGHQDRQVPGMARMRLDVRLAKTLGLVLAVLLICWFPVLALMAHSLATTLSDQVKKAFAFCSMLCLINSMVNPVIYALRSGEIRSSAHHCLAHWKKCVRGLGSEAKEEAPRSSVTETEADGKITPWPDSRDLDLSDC
Summary of the method: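 Compounds were tested at a single 300 nM final concentration for displacing 0.75 nM [3H]-CP-55,940 from hCB2-CHO membranes (1 h, 30 °C, 50 mM Tris pH 7.4, 5 mM MgCl2, 1 mM EDTA, 0.1% BSA). Filter-bound radioactivity was counted, with 0.5 μM unlabelled CP-55,940 for nonspecific binding; results are % displacement.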

[2] = target: CB1 (Rattus norvegicus, UniProt P20272); test: Rat CB1 receptor binding using brain membrane, [3H]SR141716A displacement (Protocol I); set-up: CB1 receptor present in a rat brain membrane preparation; from tissue; host or cells: rat brain membrane; inhibition: dose or concentration left out as unconfirmed; conditions: 1 h
Chain of CB1 (P20272 whole entry): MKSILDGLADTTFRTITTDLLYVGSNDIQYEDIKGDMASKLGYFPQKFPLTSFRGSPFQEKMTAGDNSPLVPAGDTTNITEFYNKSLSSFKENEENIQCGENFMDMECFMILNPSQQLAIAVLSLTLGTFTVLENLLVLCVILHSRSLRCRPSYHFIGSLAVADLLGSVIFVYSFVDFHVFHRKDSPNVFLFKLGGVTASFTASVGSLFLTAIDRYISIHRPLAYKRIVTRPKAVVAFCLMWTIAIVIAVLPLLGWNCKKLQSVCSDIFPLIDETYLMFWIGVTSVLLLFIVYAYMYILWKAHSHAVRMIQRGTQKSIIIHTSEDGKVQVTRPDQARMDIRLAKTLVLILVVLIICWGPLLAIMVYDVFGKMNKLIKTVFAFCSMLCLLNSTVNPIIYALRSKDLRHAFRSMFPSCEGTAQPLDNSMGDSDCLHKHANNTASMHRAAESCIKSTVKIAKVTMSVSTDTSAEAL
Description: I. In Vitro Protocol for Rat CB1 Receptor Binding Using Brain Membrane
In this assay, [^3H]SR141716A (5-(4-chlorophenyl)-1-(2,4-dichlorophenyl)-4-methyl-N-(1-piperidyl)pyrazole-3-carboxamide) was used to bind the CB1 receptor present in a rat brain membrane preparation which can be displaced by unlabeled ligands having affinity to the CB1 receptor.
The assay was performed according to the modified method of Thomas et al., 1998 (JPET 285: 285-292). The total reaction mixture ([…]) contained Tris-BSA buffer (50 mM Tris, pH 7.4 with 1.5% BSA) or unlabeled SR141716A […] or test samples […], [^3H] SR141716A (2 nM) and […] of rat brain membrane. The non-specific binding was defined by […] of SR141716A. The assay mixture was incubated at 37° C. for 1 hour. The reaction was then stopped by rapid filtration under vacuum using Whatman GF/B-96 micro filter plate. A scintillation cocktail was added and radioactive counts were measured using a Topcount beta scintillation counter.
The standard and test sample dilutions were made in an assay buffer containing either ethanol or DMSO at a final concentration of 1%.
The percent (%) displacement by a test ligand was calculated by comparing the specific bound values.

[3] = rat brain membrane, [3H]SR141716A displacement, read-out: % Displacement Protocol I

Row | SMILES | melting point | inhibition at 0.3 µM [1] | inhibition [2, 3] | inhibition ([2]; read-out: % Displacement Protocol I, rat brain membrane, [3H]SR141716A displacement)
1 | O=C(NCc1ccccc1)c1nn(-c2ccccc2Br)c2c1C1CC3CC(C1)CC2C3 [Example 102, N(7)-Benzyl-5-(2-bromophenyl)-5,6-diazatetracyclo[7.3.1.1^3,11.0^4,8]tetradeca-4(8),6-diene-7-carboxamide] | 20 °C | 0.74% | 27.3% | –
2 | O=C(NN1CCOCC1)c1nn(-c2ccc(Cl)cc2)c2c1C1CC3CC(C1)CC2C3 [Example 103, N(7)-Morpholino-5-(4-chlorophenyl)-5,6-diazatetracyclo[7.3.1.1^3,11.0^4,8]tetradeca-4(8),6-diene-7-carboxamide] | 220 °C | 6.99% | 22.2% | –
3 | O=C(NCC1CCCCC1)c1nn(-c2ccc(Cl)cc2)c2c1C1CC3CC(C1)CC2C3 [Example 108, N(7)-Cyclohexylmethyl-5-(4-chlorophenyl)-5,6-diazatetracyclo[7.3.1.1^3,11.0^4,8]tetradeca-4(8),6-diene-7-carboxamide] | 117 °C | 37.1% | 82.5% | –
4 | O=C(NCc1ccccn1)c1nn(-c2ccc(Cl)cc2)c2c1C1CC3CC(C1)CC2C3 [Example 120, N(7)-(2-Pyridylmethyl)-5-(4-chlorophenyl)-5,6-diazatetracyclo[7.3.1.1^3,11.0^4,8]tetradeca-4(8),6-diene-7-carboxamide] | 187 °C | 9.18% | 30.4% | –
5 | O=C(NN(c1ccc(Cl)cc1Cl)C1CCCCC1)c1nn(-c2ccc(Cl)cc2)c2c1C1CC3CC(C1)CC2C3 [Example 129, N(7)-(2,4-Dichlorophenyl-N′-cyclohexylamino)-5-(4-chlorophenyl)-5,6-diazatetracyclo[7.3.1.1^3,11.0^4,8]tetradeca-4(8),6-diene-7-carboxamide] | 95 to 96 °C | 62.9% | 65.2% | –
6 | O=C(NNc1ccc(Cl)cn1)c1nn(-c2ccc(Cl)cc2)c2c1C1CC3CC(C1)CC2C3 [Example 135, N(7)-(5-Chloro-2-pyridylamino)-5-(4-chlorophenyl)-5,6-diazatetracyclo[7.3.1.1^3,11.0^4,8]tetradeca-4(8),6-diene-7-carboxamide] | 130 to 135 °C | 6.48% | 20.5% | –
7 | Cc1ccc(-n2nc(C(=O)NN3CCCCC3)c3c2C2CC4CC(CC3C4)C2)cc1 [Example 160, N(7)-Piperidino-5-(4-methylphenyl)-5,6-diazatetracyclo[7.3.1.1^3,11.0^4,8]tetradeca-4(8),6-diene-7-carboxamide] | 228 to 232 °C | 20.8% | 10% | –
8 | Cc1ccc(-n2nc(C(=O)NNc3ccc(Cl)cc3Cl)c3c2C2CC4CC(CC3C4)C2)cc1 [Example 161, N(7)-(2,4-Dichlorophenylamino)-5-(4-methylphenyl)-5,6-diazatetracyclo[7.3.1.1^3,11.0^4,8]tetradeca-4(8),6-diene-7-carboxamide] | 208 to 215 °C | 39.4% | 27.9% | –
9 | COc1ccc(-n2nc(C(=O)NCc3ccccc3Cl)c3c2C2CC4CC(CC3C4)C2)cc1 [Example 164, N7-(2-Chlorobenzyl)-5-(4-methoxyphenyl)-5,6-diazatetracyclo[7.3.1.1^3,11.0^4,8]tetradeca-4(8),6-diene-7-carboxamide] | 178 °C | 13.2% | 8.2% | –
10 | COc1ccc(-n2nc(C(=O)NNc3ccc(Cl)cc3Cl)c3c2C2CC4CC(CC3C4)C2)cc1 [Example 165, N(7)-(2,4-Dichlorophenylamino)-5-(4-methoxyphenyl)-5,6-diazatetracyclo[7.3.1.1^3,11.0^4,8]tetradeca-4(8),6-diene-7-carboxamide] | 199 °C | 45.3% | 14.2% | –
11 | O=C(NNc1ccc(Cl)cc1Cl)c1nn(-c2ccccc2)c2c1C1CC3CC(C1)CC2C3 [Example 167, N(7)-[(2,4-Dichlorophenyl)amino]-5-phenyl-5,6-diazatetracyclo[7.3.1.1^3,11.0^4,8]tetradeca-4(8),6-diene-7-carboxamide] | 166 to 170 °C | 24.6% | 61.3% | –
12 | O=C(NNc1ccc(Cl)cc1Cl)c1nn(-c2ccc(Cl)cc2Cl)c2c1C1CC3CC(C1)CC2C3 [Example 175, N(7)-(2,4-Dichlorophenylamino)-5-(2,4-dichlorophenyl)-5,6-diazatetracyclo[7.3.1.1^3,11.0^4,8]tetradeca-4(8),6-diene-7-carboxamide] | 153 to 156 °C | 18.5% | 66% | –
13 | O=C(NNc1ccccc1Br)c1nn(-c2ccc(Cl)cc2Cl)c2c1C1CC3CC(C1)CC2C3 [Example 176, N(7)-(2-Bromophenylamino)-5-(2,4-dichlorophenyl)-5,6-diazatetracyclo[7.3.1.1^3,11.0^4,8]tetradeca-4(8),6-diene-7-carboxamide] | 196 to 199 °C | 30.5% | 65.6% | –
14 | O=C(NN1CCCCC1)c1nn(-c2ccccc2)c2c1C1CCC2C1 (centres unmarked) [Example 201, N(3)-Piperidino-1-phenyl-4,5,6,7-tetrahydro-1H-4,7-methano-indazole-3-carboxamide] | 144 °C | 19.8% | 9% | –
15 | O=C(NNc1ccccc1)c1n[nH]c2c1C1(c3ccccc3)CCC2C1 (centres unmarked) [Example 204, N(3)-Phenylamino-4-phenyl-4,5,6,7-tetrahydro-1H-4,7-methano-indazole-3-carboxamide] | 189 °C | 10.5% | -10.3% | –
16 | O=C(NN1CCCCC1)c1nn(-c2ccccc2Cl)c2c1C1CCC2C1 (centres unmarked) [Example 205, N(3)-Piperidino-1-(2-chlorophenyl)-4,5,6,7-tetrahydro-1H-4,7-methano-indazole-3-carboxamide] | 232 °C | 15.9% | -12.7% | –
17 | O=C(NNc1ccccc1)c1nn(-c2ccccc2Cl)c2c1C1CCC2C1 (centres unmarked) [Example 208, N(3)-Phenylamino-1-(2-chlorophenyl)-4,5,6,7-tetrahydro-1H-4,7-methano-indazole-3-carboxamide] | 205 °C | 0% | -1.2% | –
18 | O=C(NCc1ccc(Br)cc1)c1nn(-c2ccc(Cl)cc2)c2c1C1CCC2C1 (centres unmarked) [Example 225, N(3)-(4-Bromobenzyl)-1-(4-chlorophenyl)-4,5,6,7-tetrahydro-1H-4,7-methano-indazole-3-carboxamide] | 181 to 183 °C | – | 31.1% | –
19 | O=C(Nc1ccccc1)c1nn(-c2ccc(Cl)cc2Cl)c2c1C1CCC2C1 (centres unmarked) [Example 243, N(3)-Phenyl-1-(2,4-dichlorophenyl)-4,5,6,7-tetrahydro-1H-4,7-methano-indazole-3-carboxamide] | 66 to 68 °C | – | 23.5% | –
20 | O=C(NCc1ccccc1Cl)c1nn(-c2ccc(Cl)cc2Cl)c2c1C1CCC2C1 (centres unmarked) [Example 249, N(3)-(2-Chlorobenzyl)-1-(2,4-dichlorophenyl)-4,5,6,7-tetrahydro-1H-4,7-methano-indazole-3-carboxamide] | 117 to 120 °C | – | 47.7% | –
21 | O=C(NC1CCCCC1)c1nn(-c2ccc(F)cc2)c2c1C1CCC2C1 (centres unmarked) [Example 279, N(3)-Cyclohexyl-1-(4-fluorophenyl)-4,5,6,7-tetrahydro-1H-4,7-methano-indazole-3-carboxamide] | 127 °C | – | – | 62%
22 | O=C(NCc1ccccc1)c1nn(-c2ccc(F)cc2)c2c1C1CCC2C1 (centres unmarked) [Example 280, N(3)-Benzyl-1-(4-fluorophenyl)-4,5,6,7-tetrahydro-1H-4,7-methano-indazole-3-carboxamide] | 104 °C | – | 33% | –
23 | O=C(NNc1ccccc1)c1nn(-c2ccc(F)cc2F)c2c1C1CCC2C1 (centres unmarked) [Example 285, N(3)-Phenylamino-1-(2,4-difluorophenyl)-4,5,6,7-tetrahydro-1H-4,7-methano-indazole-3-carboxamide] | 161 °C | – | 61.9% | –
24 | O=C(NN1CCCCC1)c1nn(-c2ccc(F)cc2F)c2c1C1CCC2C1 (centres unmarked) [Example 289, N(3)-Piperidino-1-(2,4-difluorophenyl)-4,5,6,7-tetrahydro-1H-4,7-methano-indazole-3-carboxamide] | 143 °C | – | 71.3% | –
